From paper PMC3914206

Columns and labels:
[1] = molecular target: T1, panel of 442 kinases (Homo sapiens, UniProt O95819); format: binding; settings: Compound Concentration 10 µM
T1 construct: purchased KINOMEscan
Description: (§1) We assessed the selectivity of members of this scaffold using the KINOMEscan methodology across a near comprehensive panel of 442 kinases [[18,27]].

[2] = molecular target: T2, panel of 442 kinases (Homo sapiens, UniProt Q59H18); format: binding; settings: kinase TNNI3K; compound concentration 10 µM
T2 construct: purchased KINOMEscan
T2 sequence (Q59H18 1-835): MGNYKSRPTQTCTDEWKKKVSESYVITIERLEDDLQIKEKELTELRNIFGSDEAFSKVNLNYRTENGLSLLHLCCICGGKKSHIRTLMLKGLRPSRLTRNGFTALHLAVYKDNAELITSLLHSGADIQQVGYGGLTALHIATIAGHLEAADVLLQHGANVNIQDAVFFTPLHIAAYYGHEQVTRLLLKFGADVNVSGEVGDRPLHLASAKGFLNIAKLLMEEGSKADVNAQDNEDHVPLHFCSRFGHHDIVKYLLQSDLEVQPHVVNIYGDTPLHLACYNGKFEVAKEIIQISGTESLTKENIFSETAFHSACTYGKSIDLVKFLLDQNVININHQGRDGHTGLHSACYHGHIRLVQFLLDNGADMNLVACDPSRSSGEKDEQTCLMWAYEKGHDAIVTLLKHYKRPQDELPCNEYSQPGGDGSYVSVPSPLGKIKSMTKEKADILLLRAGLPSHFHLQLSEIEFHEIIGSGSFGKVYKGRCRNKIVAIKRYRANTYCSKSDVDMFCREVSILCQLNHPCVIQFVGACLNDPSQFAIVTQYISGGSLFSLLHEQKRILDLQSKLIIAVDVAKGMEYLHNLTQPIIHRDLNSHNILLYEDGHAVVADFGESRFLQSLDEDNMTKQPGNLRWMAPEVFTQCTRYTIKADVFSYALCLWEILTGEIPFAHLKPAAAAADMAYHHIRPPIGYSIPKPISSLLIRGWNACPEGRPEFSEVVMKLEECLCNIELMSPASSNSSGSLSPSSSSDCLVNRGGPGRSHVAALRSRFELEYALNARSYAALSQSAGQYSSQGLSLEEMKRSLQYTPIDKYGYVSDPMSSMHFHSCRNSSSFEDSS
Description: as §1

T1 sequence (O95819 whole entry): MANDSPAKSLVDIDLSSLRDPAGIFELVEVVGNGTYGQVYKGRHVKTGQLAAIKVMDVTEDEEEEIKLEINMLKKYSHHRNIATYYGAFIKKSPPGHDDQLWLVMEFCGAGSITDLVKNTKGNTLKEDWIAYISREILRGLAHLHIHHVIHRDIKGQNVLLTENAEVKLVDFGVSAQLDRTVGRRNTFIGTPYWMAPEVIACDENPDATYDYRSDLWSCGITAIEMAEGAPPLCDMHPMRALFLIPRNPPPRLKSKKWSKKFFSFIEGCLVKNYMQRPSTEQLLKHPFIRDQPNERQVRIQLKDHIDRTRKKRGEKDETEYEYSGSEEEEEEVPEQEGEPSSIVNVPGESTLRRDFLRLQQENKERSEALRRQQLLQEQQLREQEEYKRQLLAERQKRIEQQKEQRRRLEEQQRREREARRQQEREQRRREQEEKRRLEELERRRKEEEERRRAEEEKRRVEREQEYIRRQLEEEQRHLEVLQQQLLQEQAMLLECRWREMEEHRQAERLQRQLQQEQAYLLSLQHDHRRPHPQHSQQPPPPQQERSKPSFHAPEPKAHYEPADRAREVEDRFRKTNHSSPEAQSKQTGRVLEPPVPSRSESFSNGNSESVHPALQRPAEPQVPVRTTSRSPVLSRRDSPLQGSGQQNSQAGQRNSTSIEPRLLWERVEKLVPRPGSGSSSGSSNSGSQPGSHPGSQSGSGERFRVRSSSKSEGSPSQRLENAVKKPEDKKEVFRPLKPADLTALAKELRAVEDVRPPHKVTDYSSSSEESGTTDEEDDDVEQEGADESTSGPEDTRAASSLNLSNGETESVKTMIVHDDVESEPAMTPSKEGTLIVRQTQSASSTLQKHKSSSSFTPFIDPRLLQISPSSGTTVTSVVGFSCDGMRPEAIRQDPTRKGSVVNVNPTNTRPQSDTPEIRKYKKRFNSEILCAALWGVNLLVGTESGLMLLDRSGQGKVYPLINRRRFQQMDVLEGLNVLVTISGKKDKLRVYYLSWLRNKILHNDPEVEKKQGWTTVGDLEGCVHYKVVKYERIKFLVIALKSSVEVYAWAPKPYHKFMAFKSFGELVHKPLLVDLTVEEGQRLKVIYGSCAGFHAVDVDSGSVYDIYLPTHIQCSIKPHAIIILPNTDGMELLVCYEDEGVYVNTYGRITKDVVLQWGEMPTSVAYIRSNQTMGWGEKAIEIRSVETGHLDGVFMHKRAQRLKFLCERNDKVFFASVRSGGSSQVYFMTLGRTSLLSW

Row | SMILES | KINOMEscan: MAP4K4 [1] | % Ctrl, TNNI3K [2] [% Ctrl]
1 | COc1cc(C(=O)N2CCC(N3CCN(C)CC3)CC2)ccc1Nc1ncc2c(n1)N1CCc3cccc(c31)C(=O)N2C [Compound 24] | 35 | 73
2 | CCOc1cc(C(=O)N2CCC(N3CCN(C)CC3)CC2)ccc1Nc1ncc2c(n1)N(C1CCCC1)c1ccccc1C(=O)N2C [Compound 26] | 96 | 89
3 | COc1cc(C(=O)N2CCC(N3CCN(C)CC3)CC2)ccc1Nc1ncc2c(n1)N(C1CCCC1)c1ccccc1C(=O)N2C [Compound 25, 11-cyclopentyl-2-((2-methoxy-4-(4-(4-methylpiperazin-1-yl)piperidine-1-carbonyl)phenyl)amino)-5-methyl-5H-benzo[e]pyrimido[5,4-b][1,4]diazepin-6(11H)-one] | 98 | 82
4 | COc1cc(C(=O)N2CCC(N3CCN(C)CC3)CC2)ccc1Nc1ncc2c(n1)N(C)c1ccccc1C(=O)N2C [15 (LRRK2-IN-1)] | 85 | 100
